Laboratory results taken from patent US4235904A, “4-Aryl-5-piperazinoalkyl-1,3-dioxol-2-ones, and compositions” (Instituto Luso Farmaco d'Italia S.p.A., priority 1978, dated 1980).
Structures can show the parent of a compound that is named as a salt.

Experiments:
[1] = Acute toxicity, DL50 (mice), ip; settings: for LD50: mouse, in vivo
[2] = system: plasmatic triglycerides; test: Hypotriglyceremic activity: determination of plasmatic triglycerides in rats treated orally; assay type: in vivo; settings: Rattus norvegicus, po, 96 h, os, five treatments in 4 days, dose which reduces by 30% the content of plasmatic triglycerides, Table 2, read-out: Hypotriglyceremic activity DE30 (rats)
Experimental: It has been evaluated orally in rats treated five times in 4 days (once daily during the first three days, twice daily on the fourth day) with the drugs under study. The animals, kept on an empty stomach, were killed on the fifth day, 18 hours after the last treatment. The following tests were carried out: The technique of […].,44, 267, 1966) is used; it consists in determining, by enzymatic route, the total glycerol made free by hydrolysis of the seric neutral fats. In particular, the "Biochemia Test Combination" (Boehringer Mannheim GMBH) was used. In this case, too, the seric concentration of triglycerides in the treated animals was compared with that in the controls. The calculated ED30 represents the dose which reduces by 30% the content of plasmatic triglycerides.

[3] = Antiulcer activity in the rat (immobilization, method of Rossi et al.); assay type: in vivo; settings: po, rats, os, 30 minutes before 4 hours immobilization, dose which protects 30% of the animals from ulcers, Table 3, read-out: Antiulcer activity DE30 (rats)
Experimental: (b) Antiulcer activity in the rat The method described by Rossi et al. (Comp.Rend.Soc.Biol., 150, 2124, 1956) was followed: 30 minutes after the oral treatment with the drugs under study, the animals, kept on an empty stomach for 48 hours, were immobilized for a period of 4 hours. At the end of this time, the presence of ulcers is checked after killing the animals by ether. The calculated ED30 represents the dose which protects 30% of the animals from ulcers.

[4] = system: plasmatic cholesterol; test: Hypocholesterolemic activity: determination of plasmatic cholesterol in rats treated orally; assay type: in vivo; settings: Rattus norvegicus, po, 96 h, os, five treatments in 4 days, dose which reduces by 30% the content of plasmatic cholesterol, Table 1, read-out: Hypocholesterolemic activity, DE30 (rats)
Experimental: It has been evaluated orally in rats treated five times in 4 days (once daily during the first three days, twice daily on the fourth day) with the drugs under study. The animals, kept on an empty stomach, were killed on the fifth day, 18 hours after the last treatment. The following tests were carried out: The technique described by J. P. Blomhoff (Clin.Chim.Acta, 43,247, 1973) for the gas-chromatographic determination of total cholesterol was followed. 0,5 ml of the animal serum are hydrolysed at 50° C. for 1 hour with 5 ml of 2% alcoholic KOH. Cholesterol is extracted with 2% petroleum ether at 60°-80° C. and the gas-chromatographic analysis is carried out on the extract with cholesterol acetate as internal standard. The plasmatic cholesterol concentration of the treated animals is evaluated by comparing it with that of the controls. The calculated ED30 represents the dose which reduces by 30% the content of plasmatic cholesterol.

SMILES	LD50 [1]	ED30 [2]	ED30 [3]	ED30 [4]	Acute toxicity DL50 (mice) ([1]; Table 2)	Acute toxicity DL50 (mice) ([1]; Table 1)	Acute toxicity DL50 (mice) ([1]; Table 3)
Cl.O=c1oc(CCN2CCC3(CCCCC3)CC2)c(-c2ccc(F)cc2)o1 [Compound 17, 4-(4-fluorophenyl)-5-[2-(3-azaspiro[5,5]undecan-3-yl)ethyl]-1,3-dioxol-2-one hydrochloride]	190 mg/kg	30 mg/kg	–	–	–	–	–
CC1CN(CCc2oc(=O)oc2-c2ccc(F)cc2)CCN1c1ccc(Cl)cc1.Cl.Cl (stereo not shown) [Compound 11, 4-(4-fluorophenyl)-5-[2-(4-(4-chlorophenyl)-3-methyl-1-piperazinyl)ethyl]-1,3-dioxol-2-one dihydrochloride]	1000 mg/kg	30 mg/kg	100 mg/kg	–	–	–	–
Cl.Cl.O=c1oc(CCN2CCN(C(c3ccccc3)c3ccc(Cl)cc3)CC2)c(-c2ccc(Cl)cc2)o1 (stereo not shown) [Compound 18, 4-(4-chlorophenyl)-5-[2-(4-(4-chlorobenzhydryl)-1-piperazinyl)ethyl]-1,3-dioxol-2-one dihydrochloride]	> 1000 mg/kg	20 mg/kg	–	–	–	–	–
Cl.Cl.O=c1oc(CCN2CCN(c3ccccc3)CC2)c(-c2ccccc2)o1 [Compound 6, 4-phenyl-5-[2-(4-phenyl-1-piperazinyl)ethyl]-1,3-dioxol-2-one dihydrochloride]	500 mg/kg	30 mg/kg	20 mg/kg	20 mg/kg	–	–	–
CSc1ccc(-c2oc(=O)oc2CCN2CCN(c3ccccc3)CC2)cc1.Cl.Cl [Compound 16, 4-(4-methylthiophenyl)-5-[2-(4-phenyl-1-piperazinyl)ethyl]-1,3-dioxol-2-one dihydrochloride]	> 1000 mg/kg	100 mg/kg	–	–	–	–	–
O=C(O)/C=C\C(=O)O.O=c1oc(CCN2CCN(c3ncccn3)CC2)c(-c2ccc(Cl)cc2)o1 [Compound 19, 4-(4-chlorophenyl)-5-[2-(4-(2-pyrimidinyl)-1-piperazinyl)ethyl]-1,3-dioxol-2-one maleate]	375 mg/kg	–	–	30 mg/kg	–	–	–
O=c1oc(CCN2CCN(c3ccc(Cl)cc3)CC2)c(-c2ccc(Cl)cc2)o1 [Compound 21, 4-(4-chlorophenyl)-5-[2-(4-chlorophenyl)-1-piperazinyl)ethyl]-1,3-dioxol-2-one hydrochloride]	> 1000 mg/kg	100 mg/kg	–	–	–	–	–
CN1CCN(CCc2oc(=O)oc2-c2ccc(F)cc2)CC1.Cl.Cl [Compound 4, 4-(4-fluorophenyl)-5-[2-(4-methyl-1-piperazinyl)ethyl]-1,3-dioxol-2-one dihydrochloride]	300 mg/kg	–	20 mg/kg	–	–	–	–
Cl.O=c1oc(CCN2CCN(c3cc(Cl)cc(Cl)c3)CC2)c(-c2ccc(F)cc2)o1 [Compound 10, 4-(4-fluorophenyl)-5-[2-(4-(3,5-dichlorophenyl)-1-piperazinyl)ethyl]-1,3-dioxol-2-one hydrochloride]	> 1000 mg/kg	100 mg/kg	50 mg/kg	–	> 1000 mg/kg	–	–
Cc1ccc(-c2oc(=O)oc2CCN2CCN(c3ccccc3)CC2)cc1.Cl [Compound 9, 4-(4-tolyl)-5-[2-(4-phenyl-1-piperazinyl)ethyl]-1,3-dioxol-2-one hydrochloride]	> 1000 mg/kg	100 mg/kg	10 mg/kg	15 mg/kg	> 1000 mg/kg	> 1000 mg/kg	–
O=c1oc(CCN2CCN(c3ccccc3)CC2)c(-c2ccc3ccccc3c2)o1 [Compound 14, 4-(2-naphtyl)-5-[2-(4-phenyl-1-piperazinyl)ethyl]-1,3-dioxol-2-one hydrochloride]	830 mg/kg	100 mg/kg	–	20 mg/kg	–	–	–
Cl.O=c1oc(CCCN2CCN(c3ccccc3)CC2)c(-c2ccc(F)cc2)o1 [Compound 20, 4-(4-fluorophenyl)-5-[3-(4-phenyl-1-piperazinyl)propyl]-1,3-dioxol-2-one hydrochloride]	> 500 mg/kg	15 mg/kg	–	30 mg/kg	> 500 mg/kg	–	–
Cl.Cl.O=c1oc(CCN2CCN(c3ccccc3)CC2)c(-c2ccc(Cl)cc2)o1 [Compound 7, 4-(4-chlorophenyl)-5-[2-(4-phenyl-1-piperazinyl)ethyl]-1,3-dioxol-2-one dihydrochloride]	650 mg/kg	30 mg/kg	80 mg/kg	6 mg/kg	–	–	–
O=c1oc(CCN2CCC(c3ccccc3)CC2)c(-c2ccc(Cl)cc2)o1 [Compound 22, 4-(4-chlorophenyl)-5-[2-(4-phenyl)-1-piperidinyl)ethyl]-1,3-dioxol-2-one hydrochloride]	750 mg/kg	50 mg/kg	–	–	–	–	–
Cl.O=c1oc(CCN2CCN(c3cc(Cl)ccc3Cl)CC2)c(-c2ccc(F)cc2)o1 [Compound 12, 4-(4-fluorophenyl)-5-[2-(4-(2,5-dichlorophenyl)-1-piperazinyl)ethyl]-1,3-dioxol-2-one hydrochloride]	–	30 mg/kg	–	–	1000 mg/kg	–	–
COc1ccc(-c2oc(=O)oc2CCN2CCN(c3ccccc3)CC2)cc1.Cl.Cl [Compound 15, 4-(4-methoxyphenyl)-5-[2-(4-phenyl-1-piperazinyl)ethyl]-1,3-dioxol-2-one dihydrochloride]	> 1000 mg/kg	20 mg/kg	–	–	–	–	–
Cl.O=c1oc(CCN2CCN(c3ccc(Cl)c(Cl)c3)CC2)c(-c2ccc(F)cc2)o1 [Compound 13, 4-(4-fluorophenyl)-5-[2-(4-(3,4-dichlorophenyl)-1-piperazinyl)ethyl]-1,3-dioxol-2-one hydrochloride]	–	25 mg/kg	100 mg/kg	–	600 mg/kg	–	600 mg/kg
Cl.O=c1oc(CCN2CCN(C(c3ccccc3)c3ccccc3)CC2)c(-c2ccc(Cl)cc2)o1 [Compound 23, 4-(4-chlorophenyl)-5-[2-(4-benzhydryl-1-piperazinyl)ethyl]-1,3-dioxol-2-one hydrochloride]	> 1000 mg/kg	100 mg/kg	–	–	–	–	–
O=c1oc(CCN2CCOCC2)c(-c2ccc(F)cc2)o1 [Compound 8, 4-(4-fluorophenyl)-5-[2-(1-morpholinyl)ethyl]-1,3-dioxol-2-one hydrochloride]	> 1000 mg/kg	–	30 mg/kg	–	–	–	–
CN(CCc1ccccc1)CCc1oc(=O)oc1-c1ccc(F)cc1.Cl [Compound 2, 4-(4-fluorophenyl)-5-[2-(N-methyl-N-2-phenylethylamino)ethyl]-1,3-dioxol-2-one hydrochloride]	175 mg/kg	–	15 mg/kg	–	–	–	–
Cl.Cl.O=c1oc(CCN2CCN(c3ccccc3)CC2)c(-c2ccc(F)cc2)o1 [Compound 1, 4-(4-fluorophenyl)-5-[2-(4-phenyl-1-piperazinyl)ethyl]-1,3-dioxol-2-one dihydrochloride]	420 mg/kg	50 mg/kg	10 mg/kg	10 mg/kg	–	–	–
COc1ccccc1N1CCN(CCc2oc(=O)oc2-c2ccc(F)cc2)CC1.Cl.Cl [Compound 5, 4-(4-fluorophenyl)-5-[2-(4-(2-methoxyphenyl)-1-piperazinyl)ethyl]-1,3-dioxol-2-one dihydrochloride]	350 mg/kg	–	30 mg/kg	–	–	–	–
Cl.Cl.O=c1oc(CCN2CCN(c3ccccn3)CC2)c(-c2ccc(F)cc2)o1 [Compound 3, 4-(4-fluorophenyl)-5-[2-(4-(2-pyridyl)-1-piperazinyl)ethyl]-1,3-dioxol-2-one dihydrochloride]	350 mg/kg	–	–	25 mg/kg	–	–	–
